According to patent publication US20230122463A1, “ORGANIC FINE PARTICLE” (DAIKIN INDUSTRIES, LTD., priority 2020, published 2023):

Tests used:
[1] = Water contact angle of polymer (spin-coated film, static contact angle); format: physicochemical; conditions: homopolymer of the monomer; silicon wafer spin-coated with 1.0% chloroform solution; 2 µL water, 1 minute after the droplet reached the film
Method: For the water contact angle of the polymer, a silicon wafer substrate was spin-coated with a chloroform solution of the resulting polymer with a solid concentration of 1.0% and the static water contact angle was measured. The static contact angle was obtained by dropping 2 µL of water on a coating film and measuring the contact angle 1 minute after the droplet reached the film.

[2] = Solubility in water of polymer and of monomer; format: physicochemical; conditions: thermodynamic from solid
Method: For the solubility in water of the monomers, the respective monomers were added in small batches to a predetermined amount of water, and the solubility in water was determined from the amount of dissolution when no more monomer could be dissolved (floating, precipitation or deposition occurred, or the solution became clouded).

C=C(C)C(=O)OCC(CC)CCCC (stereo not shown) [EHMA, 2-ethyhexyl methacrylate]
Water contact angle of homopolymer [1]: 97 °

C=CC(=O)OCCCCCCCCCCCCCCCCCC [SA, stearyl acrylate]
Water contact angle of homopolymer [1]: 102 ° | solubility [2]: < 0.1 mg/mL | melting point: 50 °C
